Source: article PMC5656322, “BAK1 is involved in AtRALF1-induced inhibition of root cell expansion” (PLoS Genetics, 2017)
“And” between values parts separate entries of the source, which are not always exact repeats. Equal values may be shown once. Where no end group is shown, it is not given here.

B1: Recombinant His-tagged HA-BAK1-ECD (domain or fragment, Arabidopsis thaliana, UniProt Q94F62 26-225, looked up)
chain: NAEGDALSALKNSLADPNKVLQSWDATLVTPCTWFHVTCNSDNSVTRVDLGNANLSGQLVMQLGQLPNLQYLELYSNNITGTIPEQLGNLTELVSLDLYLNNLSGPIPSTLGRLKKLRFLRLNNNSLSGEIPRSLTAVLTLQVLDLSNNPLTGDIPVNGSFSLFTPISFANTKLTPLPASPPPPISPTPPSPAGSNRITG
notes: BRI1-associated receptor kinase 1 (BAK1), Arabidopsis thaliana; extracellular domain; printed molecular weight 25,654.04 Da; HA-BAK1-ECD amplified from the pGADT7 construct, moved to pDEST17; also called BAK1-ED; not shown: HA, N-terminal, kept
B2: Recombinant His-tagged AtRALF1 (peptide, UniProt Q9SRY3 72-120, looked up)
chain: ATTKYISYQSLKRNSVPCSRRGASYYNCQNGAQANPYSRGCSKIARCRS
modifications: ends and bridges not checked; also: His-tagged
notes: Rapid alkalinization factor 1 (AtRALF1), Arabidopsis thaliana; the active peptide (49 residues by the label RALF1(9–49)), cloned in pET-28b at NdeI/HindIII; printed molecular weight 7,631 Da; The printed mass of 7,631 Da would fit the 49-residue peptide with the His tag of pET-28b still on it (surmise); also called recombinant AtRALF1; R1

Legend:
BAK1 = BAK1 phosphorylation assay, anti-phosphothreonine; format: in vivo, Arabidopsis thaliana; details: pBAK1:BAK1-HA roots, 20 min; AtRALF1 1, 2, 10 μM; BL 0.1 μM
Experimental: Transgenic plants pBAK1:BAK1-6xHA were grown in vertical plates for 10–15 days. The plants were treated with 0.1 μM BL, 2 μM RALF1(9–49), 1 μM, 2 μM or 10 μM AtRALF1 for 20 min. The roots were isolated, and the microsomal fractions were obtained as described above. The microsomal fractions were incubated with anti-HA beads (EZview Red Anti-HA Affinity Gel, Sigma) for 2 h at 4 °C to immunoprecipitate the BAK1 protein. The unbound materials were removed by washing 3 times. Proteins were separated by SDS/PAGE and further analyzed by protein blotting using anti-HA (Thermo Scientific), or anti-phosphothreonine (Novus Biologicals), or anti-phosphoserine (Novus Biologicals) antibodies.

[1] = tested on: cytosolic Ca^2+ in Arabidopsis seedlings; details: BL; ref [38]; cited from earlier work
BAK1 gene = details: BL hormone treatment, Arabidopsis plants; ref [29]; cited from earlier work
Description: It has been previously shown through microarray experiments that the treatment of Arabidopsis plants with AtRALF1 causes BAK1 gene induction by approximately 1.56-fold. Our data are consistent with that previous observation and add a new gene to the list of AtRALF1-inducible genes. […] The fact that AtRALF1 peptide and BL treatment both induce BAK1 gene expression provides further evidence that BAK1 ...

[2] = tested on: Arabidopsis seedlings, primary root; assay: Root growth inhibition assay, vertical plates; format: in vivo, Arabidopsis thaliana; details: bak1 mutants, 0 or 1 μM BL, 8 days
[3] = tested on: plants overexpressing the AtRALF1 gene; details: plants overexpressing AtRALF1 treated with BL; ref [9]; cited from earlier work
Description: AtRALF1-overexpressing plants are less sensitive to exogenous brassinosteroids (BRs). […] The expansin A5 gene (AtEXPA5), which is involved in the regulation of cell ...

[4] = tested on: AtPRP3, AtHRGP2, CPD and DWF4 genes; details: cited from earlier work
Description: AtRALF1-overexpressing plants are less sensitive to exogenous brassinosteroids (BRs). […] AtRALF1 also induces two cytochrome P450 monooxygenase genes related to the BR biosynthetic pathway: Constitutive Photomorphism and Dwarfism (CPD) and DWARF4 (DWF4). We exposed the bak1 mutants to the same concentration of AtRALF1 and evaluated the capacity to induce the AtPRP3, AtHRGP2, CPD and DWF4 genes. None of the AtRALF1-inducible genes were ...

HA-BAK1-ECD = assay: Co-immunoprecipitation in vitro; format: binding, Arabidopsis thaliana; details: 100 nM each protein, pH 6.3, overnight 4 °C, agarose anti-HA beads
Experimental: The purified recombinant proteins AtRALF1 and HA-BAK1-ECD and the synthetic peptides RALF1(9–49) and RALF1(I6A) were combined in 200 μl of interaction buffer pH 6.3 (100 mM NaCl; 1 mM PMSF; 0.5%Triton X; 2.7 mM KCl; 8 mM NaH2PO4; 2 mM KH2PO4) overnight at 4 °C. A 100-nM concentration of each protein was used. This solution was incubated with agarose anti-HA beads (EZview Red Anti-HA Affinity Gel, Sigma) for 30 min at 4 °C to immunoprecipitate the proteins, washed 5 times with interaction buffer, eluted in 1X SDS sample buffer containing 10% β-mercaptoethanol and applied to an SDS-PAGE gel. The immunoprecipitated HA-BAK1-ECD and co-immunoprecipitated AtRALF1 were analyzed by protein blotting as described. The primary and secondary antibodies used to detect AtRALF1 were anti-AtRALF1 (1:10,000, Celula B, Immunology Laboratory, UFRGS, Brazil) and goat anti-rabbit HRP-conjugated secondary antibody (1: 10,000, BioRad), respectively.

[5] = tested on: Arabidopsis seedlings, primary root; assay: Root growth inhibition assay, liquid medium, 24-well plates; format: in vivo, Arabidopsis thaliana; details: 10 μM, 2 days
Experimental: (A) and (B) Arabidopsis seedlings (2 days old) were treated with 10 μM AtRALF1 or water (H20) for 2 days. The values are the mean ± SD of at least 25 seedlings. Triple asterisks indicate P < 0.01 (Student’s t test); ns, not significant. (C) Four-day-old seedlings were transferred to media containing different concentrations of AtRALF1, and the primary root length was measured after 8 days of treatment. The data represent the mean value ± SD of 30 seedlings. […] Representative Arabidopsis seedlings after 8 days of treatment with AtRALF1 are shown below. Seedlings were arranged on plates after the treatment for imaging. Scale bars, 1 cm. (D) Two-day-old seedlings were treated with 10 μM AtRALF1 or water for 2 days, and root cell length was measured after 2 days of treatment. Cells from the root endodermis in the differentiation zone were measured. The values are the mean ± SD of approximately 150 cells. Triple asterisks indicate P < 0.01 (Student’s t test); ns, not significant.
Aliquots of 1 ml of medium containing seeds were distributed into 24-well plates. The peptides (10 μM) were added after 2 days, and the root length was measured 2 days after treatment. To maximize root growth, the seeds were germinated in vertical plates. […] The root length was measured 8 days after treatment unless stated otherwise. Control plants were grown under identical conditions in a peptide-free medium. Quantitative data were obtained as previously described. The experiments were repeated at least 3 times using independent biological replicates with similar results. The data from one representative experiment are shown. For cell length measurements, AtRALF1 peptide (10 μM) was added after 2 days of germination, and the cell length was measured after 2 days of treatment. The cell wall was stained with a 1 mg ml^-1 propidium iodide solution (Sigma) in the dark for 15 min and washed twice with water. Cells of the endodermis of the root differentiation zone were imaged and measured using confocal microscopy (Olympus FV1000). Approximately 30 plants from each genetic background and at least 5 cells per root were measured. The wavelengths for excitation and emission were 555 and 655 nm, respectively. Image processing was completed using the Olympus FluoView software.
Arabidopsis seedlings (2-days-old) were treated with 10 μM AtRALF1 or water (H20) for 2 days. The values are the mean ± SD of at least 25 seedlings. Triple asterisks indicate P < 0.01 (Student’s t test); ns, not significant. (PDF) Click here for additional data file.
Supplementary file pgen.1007053.s002.pdf: S2 Fig Loss-of-function bak1 mutants are sensitive to the inhibitory activity of AtRALF23/34 on root growth. Arabidopsis seedlings (2-day-old) were treated with 10 μM RALF1(9–49), RALF1(I6A), AtRALF1, AtRALF23 and AtRALF34 or water (H20) for 2 days. The values are the mean ± SD of at least 20 seedlings. […] (PDF) Click here for additional data file.

BAK1-GFP = assay: Co-immunoprecipitation with microsomal fraction of N. benthamiana leaves expressing BAK1-GFP; format: binding, Arabidopsis thaliana; details: 600 nM peptide, 1 h, 4 °C, anti-GFP antibody
Experimental: This assay was performed as previously described with some modifications. The BAK1 coding region was amplified from Arabidopsis genomic cDNA using standard PCR with the primers BAK1 Fw and BAK1 Rv (S1 Table). To generate the p35S-BAK1:GFP plasmid, the fragment was cloned into the pENTR D-TOPO vector and later transferred to the pk7FWG2 vector [56]. Leaves from N. benthamiana plants were agroinfiltrated with p19 vector alone and p19 co-expressed with p35S-BAK1:GFP, as previously described. After 3 days, leaves were homogenized in extraction buffer [300 mM sucrose, 100 mM Tris-HCl pH 7.5, 25 mM EDTA, 25 mM NaF, 1 mM Na2MoO4, 1 mM PMSF, 1 mM DTT and protease inhibitor cocktail (Roche), pH 6.2 adjusted] and centrifuged at 1,000 g for 10 min at 4°C, and the supernatant was then centrifuged at 100,000 g for 50 min at 4°C to precipitate the microsomal pellet. The pellet was resuspended in the extraction buffer plus 0.5% Triton-X and incubated with 600 nM recombinant AtRALF1 or 600 nM RALF1(I6A) for 1 h at 4°C. The complexes were incubated with anti-GFP antibody (Santa Cruz Biotechnology) and Sepharose Beads plus protein A (Life Technologies) overnight at 4°C. […] The AtRALF1/BAK1-GFP complex bound to the beads was eluted with denaturing in 10 μl of 1X loading buffer (NuPAGE LDS buffer) at 95°C for 8 min, then analyzed by SDS-PAGE. The proteins were detected as previously described.

fer4 mutant = details: ref [10]; cited from earlier work
Description: Isothermal titration calorimetry has been used to estimate Kd values for plant ligand-receptor kinase pairs, IDA/ HAESA and AtRALF23/FERONIA are among them and our Kd values are consistent with these reported values. […] Previous studies have shown the possibility of additional sites for AtRALF1 binding. In cell suspension cultures of tomato, tobacco and alfalfa, the ^125I-azido-RALF peptide cross-linked to two p ...

[6] = target: B2; assay: ITC; VP ITC; 0.7 mM BAK1-ECD in the syringe (28 injections of 10 μl) into 0.03 mM peptide in the 1.4 ml cell; 15 mM HEPES pH 6.8; 25 °C; three independent experiments; details: both partners purified
[7] = target: B1; assay: as above; details: both partners purified

## CC(C)[C@H](C)[C@@H](O)[C@H](O)[C@@H](C)[C@H]1CC[C@H]2[C@@H]3COC(=O)[C@H]4C[C@H](O)[C@H](O)C[C@]4(C)[C@H]3CC[C@]12C [BL, brassinolide, reference compound]
BAK1
  BAK1 phosphorylation in threonine residues: increase resulting from the treatment of the seedlings with BL
[1]
  mobilization of Ca^2+, dependence on BAK1: independent of BAK1
BAK1 gene
  BAK1 gene induction: promotes BAK1 gene induction in Arabidopsis plants
[2]
  sensitivity of root growth to BL: Reduced sensitivity
[3]
  hypocotyl elongation: a minor increase in hypocotyl elongation
  number of lateral roots: no change in the number of lateral roots
  root length: no increase in root length
[4]; Arabidopsis seedlings, BL, ref [4],[19]
  AtRALF23 gene expression: down-regulated
[4]; BL treatment, ref [9]
  CPD and DWF4 gene expression: down-regulated by BL treatment
[4]; roots of treated seedlings, ref [16]–[18]
  AtEXPA5 expression: induced by BL

## RALF1(I6A): inactive AtRALF1 peptide which has an Ile replaced by an Ala in the conserved YISY domain (ATTKYASYQSLKRNSVPCSRRGASYYNCQNGAQANPYSRGCSKIARCRS; ends and bridges not checked; cysteine pairing not given here; UniProt Q9SRY3 72-120, looked up, variant I6A)
HA-BAK1-ECD
  co-immunoprecipitation with HA-BAK1-ECD: did not co-immunoprecipitate with BAK1
[5]
  activity of negative control peptides on root growth: inactive
BAK1-GFP
  co-immunoprecipitation with BAK1-GFP: did not co-immunoprecipitate with BAK1-GFP

## ^125I-labeled AtRALF1: AtRALF1 radiolabeled with ^125I, earlier study [10] (ATTKYISYQSLKRNSVPCSRRGASYYNCQNGAQANPYSRGCSKIARCRS; ends and bridges not checked; also: radiolabeled with 125I; UniProt Q9SRY3 72-120, looked up)
fer4 mutant
  reduction of specific binding of 125I-labeled AtRALF1: approximately 40%

## B1
[6]
  stoichiometry N: 1.5 and 0.5 and 1.27

## B2
[7]
  Kd: 4.6 µM and 4.9 µM and 5.8 µM
